Experimental findings from patent US6462072B1, “Cyclic ester or amide derivatives” (GPI NIL Holdings, Inc., priority 1998, dated 2002) are described below.

This assay has as its target FKBP (Homo sapiens, UniProt P62942). Kind of assay: Ki test procedure: inhibition of peptidyl-prolyl isomerase (rotamase) activity, chymotrypsin-coupled assay. The note with it: read-out: Ki (apparent Ki, rotamase inhibition). The assay is classed as biochemical. An excerpt: Inhibition of the peptidyl-prolyl isomerase (rotamase) activity of the inventive compounds can be evaluated by known methods described in the literature (Harding, M. W. et al. Nature 341: 758-760 (1989); Holt et al. J. Am. Chem. Soc. 115: 9923-9938). These values are obtained as apparent Ki's and are presented in Table I. The cis-trans isomerization of an alanine-proline bond in a model substrate, N-succinyl-Ala-Ala-Pro-Phe-p-nitroanilide, is monitored spectro-photometrically in a chymotrypsin-coupled assay, which releases para-nitroanilide from the trans form of the substrate. The inhibition of this reaction caused by the addition of different concentrations of inhibitor is determined, and the data is analyzed as a change in first-order rate constant as a function of inhibitor concentration to yield the apparent Kivalues.
In a plastic cuvette are added […] of ice cold assay buffer (25 mM HEPES, pH 7.8, 100 mM NaCl), […] of FKBP (2.5 mM in 10 mM Tris-Cl pH 7.5, 100 mM NaCl, 1 mM dithiothreitol), […] of chymotrypsin (50 mg/mL in 1 mM HCl) and 10 mL of test compound at various concentrations in dimethyl sulfoxide. […]
The absorbance at 390 nm versus time is monitored for 90 sec using a spectrophotometer and the rate constants are determined from the absorbance versus time data files.

FKBP, sequence (P62942 whole entry): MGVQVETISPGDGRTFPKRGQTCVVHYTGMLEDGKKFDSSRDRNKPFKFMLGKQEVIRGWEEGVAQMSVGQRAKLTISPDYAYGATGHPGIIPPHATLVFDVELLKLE

Take `CCC(C)(C)C(=O)C(=O)N1CCC[C@H]1C(=O)OC1CCC(c2ccccc2)(c2ccccc2)CC1` [4,4-diphenylcyclohexl (2S)-1-(3,3-dimethyl-2-oxopentanoyl)-pyrrolidine-2-carboxylate]: the Ki worked out at 5.64 µM.
